# System: wild type HCT116 cells
# Assay: Clonogenic cell survival assay, OLFM4 added to the medium with genotoxic treatment
# Format: cell-based, human
# Conditions: 10 days
# Experimental: The influence of OLFM4 following genotoxic treatments in HCT116 OLFM4 inducible cells was evaluated by clonogenic assay. Cells were incubated with 50 ng/ml of doxycyclin, and then 24 hr later treated with oxaliplatin or sn38 at the indicated concentration for 10 days. The colonies were stained with crystal violet and counted by QuantityOne software (Biorad). B. OLFM4 overexpressed in COS7 cells, was added at approximately 3 ng/ml to oxaliplatin and sn38 treatment in the wild type HCT116 cells for 10 days. The colonies were stained and count as above. The histograms shown are representative of three individual experiments.
# The human colon adenocarcinoma cell line HCT116 (American Type Culture Collection, ATCC) were maintained in antibiotic-free RPMI 1640 medium (Lonza). Cultures were supplemented with 10% fetal bovine serum. […]
# HCT116 stable OLFM4 cells were seeded at 300 cells into 6 well cell culture plates with RPMI 1640 medium supplement with 3% fetal bovine serum and incubated at 37° C. in a 5% CO2 atmosphere. […] The number of colonies exceeding 50 cells was visualized with a Bio-Rad Chemi Doc XRS Imaging device and counted using Quantity One imaging software (Bio-Rad). The survival fraction was determined as the ratio of the number of colonies observed without doxycycline to the number of cells with doxycycline, adjusted to the plating efficiency.
substance,measurement,setting,value
"OLFM4: Secreted N-glycosylated protein of 510 residues, overexpressed in COS7 cells and added to culture medium","resistance to oxaliplatin (colony survival, clonogenic assay)",OLFM4 overexpressed in COS7 cells added at approximately 3 ng/ml to oxaliplatin treatment,promotes resistance
same,"resistance to sn38 (colony survival, clonogenic assay)",OLFM4 overexpressed in COS7 cells added at approximately 3 ng/ml to sn38 treatment,promotes resistance

# From patent publication US9523691B2, “Use of the olfactomedin-4 protein (OLFM4) in colorectal cancer diagnosis” (INSTITUT DE CANCEROLOGIE DE L'OUEST, priority 2011, dated 2016)
